Values quoted from earlier work in patent publication US6514973B1, “Compositions for the treatment and prevention of neurological and pathopsychological diseases” (Merck Patent Geseilschaft Mit Beschrankter Haftung, priority 1998, dated 2003).

time until appearance in the blood after oral administration: about 30 minutes
Substance: Phosphatidylserines
